Experimental data as given in publication PMC7356787, “Structure-Activity Relationships for the Anaesthetic and Analgaesic Properties of Aromatic Ring-Substituted Ketamine Esters” (Molecules, 2020).

How the values were obtained:
Drug half-life in rats = conditions: rat, in vivo
Excerpt: Table 1 Biological and physiochemical data for esters of ring-substituted ketamine analogues. | column: Rat / t½ ^e (min)

rats [1] = assay: Tail flick analgaesic assessment (composite tail flick latency, cTFL); type: in vivo; conditions: rat, 20 mg/kg i.v. infused over 10 min; AUC of %MPE-time curve 0-60 min; measure of analgaesic magnitude/duration
Description: Analgaesic assessment protocol: Animal preparation was in accord with the anaesthetic assessment protocol above. Three rats were used in each study. Following venous cannulation, animals underwent infusion of ketamine or experimental compound at 20 mg/kg over a ten minute interval. A tail flick analgaesia meter (Colombus Instruments, Colombus, Ohio) was then used to determine thermal pain sensitivity. Radiant heat was applied using a shutter-controlled lamp as a heat source focused on a spot located 6–8 cm from the tip of the tail. The intensity of the beam was set at a level producing basal latency times between 2 and 4 s. To prevent thermal tissue injury the cut off time as set at 10 s. A digital response time indicator with a resolution of 0.1s measured the time from initiation of stimulus until tail withdrawal (the flick; TFL).
The TFL response following infusion of control and study drugs was calculated as a percentage of the maximum possible effect (MPE) such that:%MPE = [TFL (post-drug) – TFL (pre-drug)/10 s – TFL (pre-drug)] × 100%(1)
TFL latency was recorded at 5 min intervals from cessation of study drug infusion (time zero) to 60 min. Individual %MPE-time curves were constructed for each animal, and the area under the curve (AUC) adopted as a composite measure of induced analgaesia (cTFL).

[2] = molecular target: N-methyl-D-aspartate receptor; assay: Inhibition of the NMDA receptor (Eurofins Panlabs Taiwan); type: binding; conditions: conducted by Eurofins Panlabs Taiwan
Description: (§1) The compounds were evaluated for their ability to anaesthetise rats when administered by continuous intravenous infusion, as reported previously. Compounds were administered to initially deliver 20 mg/kg/min (weight-adjusted flow) to achieve a pedal withdrawal reflex score (PWR = 1), then titrated to maintain loss of righting reflex (LORR) for 10 min. Three rats were used in each study, with each group of rats also acting as their own ketamine control. Data were collected on the total dose of drug (mg/kg), to achieve LORR and a PWR = 1, and on the time (in seconds, from cessation of the infusion) to recovery of righting reflex (RORR) (recovery from the hypnotic anaesthesia effect). Given the complexity of the experimental protocol, the total dose for LORR (Table 1) is very consistent, with ranges of only 1.5-fold within each group. The consistency of the post-sedation recovery times are expectedly lower, with ranges of about 2.5-fold. During recovery the rats were monitored for multiple signs of behavioural dysfunction (see biology section for details) and the sum of these scores (from 0 to 4, with 0 being no effect and 4 being severe dysfunction) is given in Table 2. IC50 values for inhibition of the NMDA receptor were conducted by Eurofins PanLabs, Taiwan.

rats [3] = assay: Anaesthetic assessment by continuous intravenous infusion in rats (loss and return of righting reflex); type: in vivo; conditions: iv; rat, i.v. infusion starting at 20 mg/kg/min; measure of sedative potency; mean (SEM); read-out: Sedation LORR: minimal dose for loss of righting reflex (SEM)
Description: as §1
(§2) All animal experiments were conducted at the Ruakura Research Centre, Hamilton, New Zealand, using experimental protocols reviewed and approved by the Ruakura Animal Ethics Committee (ethics ref 12604/13786). Adult female Sprague-Dawley rats of approximately 250–350 g were evaluated in both anaesthetic and analgaesic study protocols. All study agents were delivered by tail vein cannula connected via minibore extension tubing to mechanised infusion pump.
(§3) Following acquisition of baseline physiologic parameters (heart rate, respiratory rate, PWR, and righting reflex (RR)) ketamine or an experimental compound at 10mg/mL were commenced at a rate (weight-adjusted) to deliver 20 mg/kg/min. Dose to loss of righting reflex (LORR see below), and subsequent pedal withdrawal score of 1 (PWR see below) were recorded. Following attaining a PWR of 1, infusion rate was reduced to 6.7 mg/kg/min, then titrated in an up-and-down fashion as required to maintain both dorsal recumbency, and a PWR = 1, to 10 min before cessation. Each study used three rats, with each group of rats also acting as their own ketamine control. Prior odds/evens randomisation determined the order of study drug administration was determined by with a recovery interval of at least three hours afforded between experiments. Records of PWR and RR were made at one-minute intervals throughout, from cessation of infusion to return of righting reflex (RORR), and from cessation of infusion to the animals displaying independent locomotion (walk).
Loss of Righting Reflex (LORR): This is primarily used to assess anaesthetic hypnotic effect. Righting reflex is judged absent when the rat fails to right from a position of dorsal recumbency to a position of sternal recumbency on three attempts performed in rapid succession. Dose to LORR is termed effective potency.

rats [4] = assay: Pedal withdrawal reflex (PWR) scoring during intravenous infusion (analgaesic potency); type: in vivo; conditions: rat, i.v. infusion, dose to PWR = 1, mean (SEM), read-out: Analgaesia potency: minimal dose for loss of pedal withdrawal reflex (SEM)
Description: as §1, §2, §3
Pedal Withdrawal Reflex (PWR) scoring: Nociceptive testing in animals was conducted via 1 s application of constant pressure (firm digital pressure) over the forepaw of the animal. Pedal withdrawal reflex testing is primarily used to assess analgaesic effect, and responses are graded accordingly: 0, absent; 1, flicker; 2, moderate withdrawal; 3, fast withdrawal; 4, Fast withdrawal with cry/preceding apnoea (modified from).

rats [5] = assay: Behavioural dysfunction scoring during recovery from infusion; type: in vivo; conditions: rat, during wake-up, sum score 0 (no effect) to 4 (severe dysfunction), mean (SEM)
Description: as §1
Behavioural dysfunction scoring: This was undertaken according to the following table. Observations were made over a one minute interval every five minutes from cessation of infusion until return of normal behaviours (total score = 0). A score of 1 was accorded for any positive behavioural aberration for each of four categories (maximal score 4) during wake-up.
Duration of any behavioural aberration was recorded from RORR as follows: score 0 = nil; score1 = 0–120 s; score 2 = 121–300 s; score 3 = 301–600 s; score 4 = 600+ s.

SMILES | half-life (Drug half-life in rats) [min] | Analgaesia cTFL (composite tail flick latency) (rats [1]) [s] | IC50 [2] [µM] | minimal effective dose (rats [3]) [mg/kg] | minimal effective dose (rats [4]) [mg/kg] | Behavioural dysfunction Score (SEM): severity on recovery (rats [5]) | Behavioural dysfunction Score (SEM): severity on recovery (rats [5]; listed as ketamine)
CC(C)OC(=O)CCNC1(c2ccccc2Cl)CCCCC1=O (stereo not shown) [5a] | 3.4 | 1384 | 134 | 33 | 37 | 2 (1) | –
COC(=O)CCCCNC1(c2ccccc2Cl)CCCCC1=O (stereo not shown) [5b] | 0.7 | 374 | 3.2 | 34 | 44 | 2 (0) | –
CC(C)OC(=O)CCNC1(c2ccccc2C(F)(F)F)CCCCC1=O (stereo not shown) [8a] | – | 652 | 290 | 64 | 64 | 2 (1) | –
COC(=O)CCCCNC1(c2ccc(Cl)cc2)CCCCC1=O (stereo not shown) [15b, Methyl 5-((1-(4-chlorophenyl)-2-oxocyclohexyl)amino)pentanoate] | – | 576 | 101 | 89 | 100 | 3 (1) | –
COC(=O)CCCCNC1(c2ccccc2)CCCCC1=O (stereo not shown) [3b] | – | 0 | 9.9 | 40 | 45 | 1 (0) | –
COc1ccc(C2(NCCC(=O)OC(C)C)CCCCC2=O)cc1 (stereo not shown) [17a] | – | 167 | 396 | > 200 | > 200 | 0 (0) | –
COC(=O)CCCCNC1(c2cccc(C)c2)CCCCC1=O (stereo not shown) [11b] | – | 104 | 5.2 | 39 | 43 | 2 (1) | –
CNC1(c2ccccc2Cl)CCCCC1=O (stereo not shown) [compound 1, ketamine] | 44.4 | 671 | 0.7 | 21 | 28 | 3 (0) | 3
Cc1ccccc1C1(NCCC(=O)OC(C)C)CCCCC1=O (stereo not shown) [6a] | – | 393 | 428 | > 200 | > 200 | 0 (0) | –
Cc1ccc(C2(NCCC(=O)OC(C)C)CCCCC2=O)cc1 (stereo not shown) [16a] | – | 650 | 161 | 47 | 52 | 1 (0) | –
COC(=O)CCCCNC1(c2cccc(Cl)c2)CCCCC1=O (stereo not shown) [10b] | – | 54 | 13 | 51 | 61 | 3 (1) | –
COC(=O)CCCCNC1(c2ccccc2F)CCCCC1=O (stereo not shown) [4b] | – | 11 | 3.1 | 35 | 40 | 3 (1.4) | –
